Assay results from US8268816B2, “Compounds for modulating integrin CD11b/CD18” (priority 2006, dated 2012).

Legend:
integrin CD11b/CD18 = biological target: T1, integrin CD11b/CD18 (Homo sapiens, UniProt P05107+P11215); assay: no-wash cell adhesion assay for agonists: K562 CD11b/CD18 cells on fibrinogen in TBS++; type: cell-based
T1 construct: expressed in transfected cells
Protocol: Maxisorp microtiter plates (96- and 384-well) were coated with 1-20 μg/mL fibrinogen (Fg) ligand in PBS^++ overnight at 4° C. Subsequently, the Fg-coated wells were washed with TBS and non-specific sites were blocked by incubation with 2% non-fat milk in TBS at room temperature for 30 min. Next, the wells were washed three times with TBS and the coated microtiter plates were used in the HTS assays.
All the adhesion assays were carried out in the screening facility at the Institute of Chemistry and Cell Biology (ICCB), Harvard Medical School using the available small molecule libraries and equipment. Actimol Timtec 1 small molecule library (6,612 compounds) has been previously described (http://iccb.med.harvard.edu/screening/compound_libraries). The small molecule library is stocked in 384-well plates at −80° C. and as sealed plates, with each well's containing a unique compound dissolved in DMSO at approximately 5 mg/mL. […] Adherent cells were quantitated using either cell viability measuring reagents or automated imaging (see below).
For quantitation of adherent cells using a cell viability measuring kit (such as MTS-based CellTiter-One (Promega), CyQuant (Molecular Probes) or Luciferase-based CellTiter-Glo (Promega)), the non-adherent cells were removed by complete aspiration using an automated liquid handling machine (ELx405, Bio-Tek Instruments, VT) and the assay reagent added according to manufacturer's instructions. For automated imaging based quantitation of adherent cells, the non-adherent cells were fixed by adding a small volume of formaldehyde (1.1% v/v final concentration) and the plates were kept inverted for an additional 1 h. Upon cell fixation, the wells were washed with TBS using automated liquid handling machine (ELx405) and the adherent cells were fluorescently labeled with DAPI (0.5 μM final in TBS with 0.1% TritonX-100) and quantitated using automated microscope (see below).
CellWorx automated microscope (Cellomics, Pa.) was set at 0.3 s exposure using DAPI filter set to capture 1-3 images per well. […] Data output files were analyzed using MS Excel. […]

integrin CD11a/CD18 = biological target: T2, integrin CD11a/CD18 (Homo sapiens, UniProt P05107+P20701); assay: adhesion of K562 CD11a/CD18 cells to ICAM1-Fc in TBS++; type: cell-based; conditions: dose-response, increasing amounts of small molecule
T2 construct: expressed in transfected cells; host or cells: K562 cells stably expressing CD11a/CD18
T2 sequence (P20701 26-1170): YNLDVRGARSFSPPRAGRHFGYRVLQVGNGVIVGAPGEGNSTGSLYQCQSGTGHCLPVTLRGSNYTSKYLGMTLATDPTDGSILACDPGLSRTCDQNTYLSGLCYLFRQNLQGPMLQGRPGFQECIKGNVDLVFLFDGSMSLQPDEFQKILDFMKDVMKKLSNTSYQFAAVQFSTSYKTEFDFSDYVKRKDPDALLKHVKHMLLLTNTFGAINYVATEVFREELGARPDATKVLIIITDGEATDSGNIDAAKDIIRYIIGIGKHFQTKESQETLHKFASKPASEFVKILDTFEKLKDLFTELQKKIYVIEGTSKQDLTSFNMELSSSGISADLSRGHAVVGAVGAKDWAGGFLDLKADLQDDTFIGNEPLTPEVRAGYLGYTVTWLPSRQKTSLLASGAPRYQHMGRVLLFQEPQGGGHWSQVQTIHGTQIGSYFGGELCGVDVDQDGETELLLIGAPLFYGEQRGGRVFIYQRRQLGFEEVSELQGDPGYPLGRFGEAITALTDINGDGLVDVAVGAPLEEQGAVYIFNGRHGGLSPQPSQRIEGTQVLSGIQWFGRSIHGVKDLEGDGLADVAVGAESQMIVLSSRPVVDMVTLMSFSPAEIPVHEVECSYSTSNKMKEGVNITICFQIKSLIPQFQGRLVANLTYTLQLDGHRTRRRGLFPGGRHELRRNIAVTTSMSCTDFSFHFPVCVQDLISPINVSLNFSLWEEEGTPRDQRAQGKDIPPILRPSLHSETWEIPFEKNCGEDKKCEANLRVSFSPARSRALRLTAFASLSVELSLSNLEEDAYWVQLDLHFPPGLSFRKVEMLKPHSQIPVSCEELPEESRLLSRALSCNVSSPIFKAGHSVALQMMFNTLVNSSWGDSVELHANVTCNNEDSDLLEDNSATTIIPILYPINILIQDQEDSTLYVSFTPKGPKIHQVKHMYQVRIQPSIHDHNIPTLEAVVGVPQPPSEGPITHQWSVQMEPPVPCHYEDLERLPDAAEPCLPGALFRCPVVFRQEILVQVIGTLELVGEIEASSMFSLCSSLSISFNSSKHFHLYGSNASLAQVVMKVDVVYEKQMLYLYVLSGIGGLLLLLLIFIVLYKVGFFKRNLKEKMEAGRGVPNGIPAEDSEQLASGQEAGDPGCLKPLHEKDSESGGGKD
T2 sequence (P05107 23-769): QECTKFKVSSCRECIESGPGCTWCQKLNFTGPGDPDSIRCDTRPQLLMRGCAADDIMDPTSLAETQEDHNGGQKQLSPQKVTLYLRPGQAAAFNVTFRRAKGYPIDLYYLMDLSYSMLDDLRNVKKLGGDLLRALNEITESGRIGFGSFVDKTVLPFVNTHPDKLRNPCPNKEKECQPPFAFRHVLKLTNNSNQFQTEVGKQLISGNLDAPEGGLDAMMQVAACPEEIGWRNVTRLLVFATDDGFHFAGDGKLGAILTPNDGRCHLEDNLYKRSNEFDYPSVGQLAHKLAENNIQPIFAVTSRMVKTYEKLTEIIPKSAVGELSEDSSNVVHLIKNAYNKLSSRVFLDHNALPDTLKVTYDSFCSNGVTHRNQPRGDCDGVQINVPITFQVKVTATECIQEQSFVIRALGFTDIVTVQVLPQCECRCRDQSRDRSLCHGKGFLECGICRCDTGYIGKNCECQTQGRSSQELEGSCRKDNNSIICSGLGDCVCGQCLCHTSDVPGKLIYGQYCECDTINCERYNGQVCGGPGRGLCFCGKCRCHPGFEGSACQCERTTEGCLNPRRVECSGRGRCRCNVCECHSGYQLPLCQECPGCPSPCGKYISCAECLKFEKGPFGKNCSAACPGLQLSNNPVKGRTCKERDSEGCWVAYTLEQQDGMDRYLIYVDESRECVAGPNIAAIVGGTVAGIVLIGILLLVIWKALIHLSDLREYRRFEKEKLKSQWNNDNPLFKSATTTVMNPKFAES
Protocol: Maxisorp microtiter plates (384-well) were coated with 1-20 μg/mL fibrinogen (Fg), 4 μg/mL iC3b or 0.375 μg/mL ICAM1-Fc ligands in PBS^++ overnight at 4° C.
For the adhesion assay in 384-well plates, the K562 cells were washed with TBS and cells (30,000/well) were transferred to the ligand-coated wells (Fg for CD11b/CD18 and ICAM1-Fc (R&D Systems, Minneapolis, Minn.) for CD11a/CD18) of microtiter plates in the assay buffer (TBS containing 1 mM each of Ca^2+ and Mg^2+ (TBS^++). Compounds were transferred to each well and the assay plates were incubated at 37° C. in the presence of small molecule compounds and were incubated with small molecules for 30 min. In order to dislodge the non-adherent cell, the assay plates were gently inverted and kept in the inverted position for 20 min at room temperature. Adherent cells were quantified using either cell viability measuring reagents or automated imaging (see below).

[1] = system: thioglycolate-induced peritonitis mouse model; assay: thioglycolate-induced peritonitis, neutrophil influx into the peritoneum; type: in vivo, C57BL6 mice; conditions: 4 μg i.v. about 5 min after i.p. 4% thioglycolate, lavage at 12 h, flow cytometry
Protocol: The wild-type (WT) C57BL6 mice of approximately six weeks of age were purchased from Charles River Labs (Boston, Mass.). Mice were injected intraperitoneally with 1 mL of 4% w/v sterile thioglycolate (TG) (Sigma, St. Louis, […].) in PBS. Control mice were injected with PBS alone. Approximately five minutes after TG injection, 4 μg each of compounds IMB-8, -6 or -11 were administered in 0.5 mL PBS through a tail vein injection. Twelve hours post-injection, the percentage of infiltrated neutrophils in the peritoneal lavage was determined using flow cytometry. Cells from the lavage fluid were labeled with FITC-labeled anti-mouse GR1 and PE-labeled anti-mouse CD11b antibodies (BD Pharmingen, Jan Jose, Calif.) and analyzed using FACS Calibur flow cytometer.

T1 sequence (P05107 23-769, other chains not shown): as the sequence (P05107 23-769) above

Compound: Cc1ccccc1N1C(=O)/C(=C/C=C/c2ccccc2)SC1=S [IMB-10, reference compound]
- adhesion of K562 cells stably expressing integrin CD11b/CD18 to fibrinogen (integrin CD11b/CD18; dose-response, increasing amounts of small molecule, TBS++): increased equally well the adhesion
- adhesion of K562 cells stably expressing integrin CD11a/CD18 to ICAM1 (integrin CD11a/CD18): increased equally well the adhesion

Compound: O=C1CSC(NC(=O)N2c3ccccc3Sc3ccccc32)=N1 [Compound 11]
- selectivity for integrin CD11b/CD18 over integrin CD11a/CD18 in cell adhesion (integrin CD11b/CD18; K562 CD11b/CD18 on fibrinogen versus K562 CD11a/CD18 on ICAM1): selectively increased adhesion
- neutrophil influx into the peritoneum due to TG injection [1]: reduce leukocyte recruitment
- neutrophil influx into the peritoneum due to TG injection ([1]; listed as compound 11): remarkable decrease

Compound: N=C1SC(=Cc2ccco2)C(=O)N1c1nccs1 [Compound 9]
- EC50 (integrin CD11b/CD18; secondary screen, read-out: EC50, concentration required for half-maximal increase in cell-adhesion): ~6.7 µM
